Test results reported in paper PMC5038265 (Antimicrobial Agents and Chemotherapy, 2016).
≈ marks a conversion by molar mass, not a printed value. Where two headings read alike, the source gives them in different places.

Tests used:
[1] = tested on: multidrug-resistant M. tuberculosis isolates; test: microbe, parasite or virus in culture; assay type: cell-based; details: for MIC: Mycobacterium tuberculosis, read-out: In vitro activity (MIC)
M. tuberculosis H37Rv = assay type: cell-based

| Structure (SMILES) | cross-resistance against multidrug-resistant isolates [1] | MIC ([1]; H37RV, M. tuberculosis H37Rv) [µg/mL] | MIC [1] [µg/mL] | In vitro activity (MIC) ([1]; listed as Cmp13) [µg/mL] | Resistance frequency at 4× MIC (M. tuberculosis H37Rv) | Resistance frequency at 10× MIC (M. tuberculosis H37Rv) |
| --- | --- | --- | --- | --- | --- | --- |
| CCOc1ccc(Cl)c2c1B(O)O[C@@H]2CN [Compound 13] | did not show any cross-resistance | 0.015 (≈ 0.0621 µM) | 0.015 (≈ 0.0621 µM) | 0.030 | – | – |
| CCOc1ccc(Br)c2c1B(O)O[C@@H]2CN [Compound 14] | did not show any cross-resistance | 0.03 (≈ 0.105 µM) | 0.03 (≈ 0.105 µM) | – | 4.6 × 10^−6 | 3.9 × 10^−6 |
| NNC(=O)c1ccncc1 [Isoniazid, isoniazid, reference compound] | – | 0.06 (≈ 0.438 µM) | > 0.12 | – | – | 1.8 × 10^−5 |
| COc1c(N2C[C@@H]3CCCN[C@@H]3C2)c(F)cc2c(=O)c(C(=O)O)cn(C3CC3)c12 [Moxifloxacin, moxifloxacin, reference compound] | – | – | – | – | 1.7 × 10^−7 | 1.1 × 10^−8 |
